# Patent US20060049052A1, “Ampholytic buffer having high buffering capacity and high conductivity in isoelectric form” (The Texas A&M University System, priority 2004, published 2006)
# Where a name gives a salt, the structure may show the parent alone.
# Legend:
# [1] = Conductivity, pH and buffering capacity of 50 mM solutions of ampholytic buffers; type: physicochemical; conditions: 50 mM solution
# Protocol: The conductivities, pH values and buffering capacities of 50 mM solutions of some of the ampholytic buffers of the present invention are listed in Table 1. For comparison purposes, values for histidine (HIS), a widely used low conductivity ampholytic buffer are also included.
# [2] = indirect UV detection CE, bare fused silica capillary, 15 kV, T=25, UV 214 nm, BGEs of varied pH
# Protocol: Using a 26 :m I.D. bare fused silica capillary, Lt=26.1 cm, Ld=19.7 cm at 15 kV in positive to negative polarity, T=25 EC, UV detector set at 214 nm, conventional CE was carried out in 20 mM tris(hydroxymethyl) aminomethane (Tris) and 20 mM benzylamine BGEs titrated with pTSA.
# Using a 26 :m I.D. bare fused silica capillary, Lt=26.1 cm, Ld=19.7 cm at 15 kV in positive to negative polarity, T=25 EC, and the UV detector set at 214 nm, conventional CE was carried out in 20 mM acetic acid BGEs titrated with imidazole and 20 mM pyridine BGEs titrated with pTSA.
# [3] = pH of concentrated aqueous solution of the isoelectric buffer after desalting in IET apparatus (equal to pI); type: physicochemical; conditions: isoelectric state after IET desalting
# Text: The aqueous solution was desalted and the ampholytic buffer brought to isoelectric state in an IET apparatus. The pH of the concentrated aqueous solution of isoelectric BCPDEAH was 3.8, equal to its pI value. After liophylization, the solid product was characterized by ^1H- and ^13C-NMR. […] The identity and purity of the final product were further confirmed by high resolution ESI-MS. Only signals corresponding to BCPDEAH and its fragment ions are seen.
"pH of the concentrated aqueous solution of isoelectric form, equal to its pI value [3]",SMILES,Buffering capacity [1] [mM/pH],Conductivity [1] [mS/m],pH [1],pI [2]
–,"O=S(=O)(O)OC(CN1CCOCC1)CN1CCOCC1 [DMSP, 1,3-dimorpholino-2-O-sulfo-propane]",14.7,7.3,5.79,5.8
–,"N[C@@H](Cc1c[nH]cn1)C(=O)O [HIS, histidine, reference compound]",12.5,3.5,7.44,–
–,"CN(C)CC(CN(C)C)OS(=O)(=O)O [BDASP, 1,3-bis(N,N-dimethylamino)-2-O-sulfo-propane]",25.0,25.8,7.82,~8.0
3.8,"CC[N+](CC)(CCCC(=O)[O-])CCCC(=O)O [BCPDEAH, N,N-bis(carboxypropyl)diethyl ammonium hydroxide, inner salt]",35.7,18.4,4.15,–
–,"CCCN(CCC)CC(CN(CCC)CCC)OS(=O)(=O)O [BDPSP, 1,3-bis(dipropylamino)-2-O-sulfo-propane]",–,–,–,8.7
–,"O=S(=O)(O)OC(CN1CCCCC1)CN1CCCCC1 [DPSP, 1,3-dipiperidino-2-O-sulfo-propane]",20.8,18.1,8.35,8.9
